The source of these data is patent US7495027B2, “3-aryl-4-hydroxyfuranone compounds and the human and animal health use thereof” (Wyeth, priority 2003, dated 2009).

One assay has as its system C. elegans. Nature of the assay: Efficacy against nematodes (C. elegans motility rating). More on the design: key: 0: no effect; 7: reduced movement in 24 h; 8: dead in 24 h; 9: dead in 4 h. Particulars: dose 200 μM, observations at 4 h and 24 h postimmersion. Here is the method: Evaluation of the Efficacy of a 3-Aryl-4-Hydroxyfuranone Against Nematodes
In this evaluation, cultures of C. elegans are maintained on E. coli lawns on Nematode Growth Agar at 20° C. New cultures are established twice a week. Nematodes for testing are rinsed from plates using M9 Buffer. […] One μL of this solution is added to each well of a 96 well plate. A mixture of C. elegans in M9 Buffer (100 μL) is added to each well, such that approximately 50 worms of mixed stages (L1, L2, L3, L4 and adults) are present in each well at a final concentration of 100 ppm, 150 ppm or […] of test compound. Concentration of test compound may be varied by gradient dilution of the stock DMSO solution. Observations are made under a dissecting microscope at 4 h and 24 h postimmersion. A rating is based on the motility of the larvae and adults, using the rating system shown below.
Turning to `Cc1cccc(C2=C(O)C(=Cc3cc(C(F)(F)F)ccc3Cl)OC2=O)c1C`, the Rating is 0. For the compound `Cc1ccc(C)c(C2=C(O)/C(=C/c3cc(C(F)(F)F)ccc3Cl)OC2=O)c1`, the Rating came to 0. Compound `CC(C)c1cccc(C2=C(O)/C(=C/c3cc(C(F)(F)F)ccc3Cl)OC2=O)c1` displayed a Rating of 0. On the same count and under the same terms, the result for `Cc1ccc(C2=C(O)C(=Cc3cccc(C(F)(F)F)c3Cl)OC2=O)cc1C` reads 9.

`Cc1ccc(C2=C(O)/C(=C/c3cc(C(F)(F)F)ccc3Cl)OC2=O)cc1C` registered a Rating of 0.

On to `Cc1cc(C)cc(C2=C(O)/C(=C/c3cc(C(F)(F)F)ccc3Cl)OC2=O)c1`, for which the Rating is on record as 0. Same read-out and setting: the same measure for `CCOc1ccc(-c2ccc(C3=C(O)/C(=C/c4cc(C(F)(F)F)ccc4F)OC3=O)cc2)cc1`: 9.

The compound `CCCCc1ccc(-c2ccc(C3=C(O)C(=Cc4cccc(C(F)(F)F)c4Cl)OC3=O)cc2)cc1` had a Rating of 9.

The compound `CCCCc1ccc(-c2ccc(C3=C(O)/C(=C/c4cc(C(F)(F)F)ccc4F)OC3=O)cc2)cc1` displayed a Rating of 0. For `CCCCc1ccc(-c2ccc(C3=C(O)C(=Cc4cc(F)cc(C(F)(F)F)c4)OC3=O)cc2)cc1`, the Rating stood at 9.

For `CCCc1ccc(-c2ccc(C3=C(O)/C(=C/c4cccc(C(F)(F)F)c4Cl)OC3=O)cc2)cc1`, the Rating was 9. `CCCc1ccc(-c2ccc(C3=C(O)/C(=C/c4cc(C(F)(F)F)ccc4Cl)OC3=O)cc2)cc1` returned a Rating of 0. `CCCc1ccc(-c2ccc(C3=C(O)/C(=C/c4cc(C(F)(F)F)ccc4F)OC3=O)cc2)cc1` had a Rating of 9. Still for that read-out and setting: the result for `CC(C)(C)c1ccc(-c2ccc(C3=C(O)/C(=C/c4cccc(C(F)(F)F)c4)OC3=O)cc2)cc1` reads 0; that for `CCc1ccc(C2=C(O)/C(=C/c3cc(C(F)(F)F)ccc3Cl)OC2=O)cc1`, 9; that for `CC(C)c1ccc(C2=C(O)/C(=C/c3cccc(C(F)(F)F)c3Cl)OC2=O)cc1`, 9.

Staying with this assay, now noted: dose 100 ppm, observations at 4 h and 24 h postimmersion.
For `O=C1OC(=Cc2ccc(Cl)c(Cl)c2)C(O)=C1c1ccc(Cl)s1`, the Rating is 9.

Turning to `O=C1O/C(=C\c2ccc(F)c(F)c2)C(O)=C1c1ccc(Cl)s1`, the Rating is recorded as 9.

Turning to `O=C1O/C(=C\c2ccc(C(F)(F)F)cc2)C(O)=C1c1ccc(Cl)s1`, the Rating was found to be 9.

In turn, `N#Cc1ccc(/C=C2\OC(=O)C(c3ccc(Cl)s3)=C2O)cc1` came in with a Rating of 9. The same measure, in the same setting: the same measure for `O=C1O/C(=C\c2ccc(Cl)cc2)C(O)=C1c1ccc(Cl)s1`: 9.

On to `O=C1O/C(=C\c2ccc(F)c(C(F)(F)F)c2)C(O)=C1c1ccc(Cl)s1`, for which the Rating is recorded as 9. For `O=C1O/C(=C\c2ccc(F)cc2)C(O)=C1c1ccc(Cl)s1`, the Rating is on record as 9. Still for that read-out and setting: the result for `O=C1O/C(=C\c2ccc(OC(F)(F)F)cc2)C(O)=C1c1ccc(Cl)s1` reads 9. In turn, `O=C1O/C(=C\c2ccc(OC(F)F)cc2)C(O)=C1c1ccc(Cl)s1` yielded a Rating of 9. In turn, `O=C1O/C(=C\c2ccc(OCC3CC3)cc2)C(O)=C1c1ccc(Cl)s1` yielded a Rating of 9. Same read-out and setting: the result for `O=C1OC(=Cc2ccc(Cl)s2)C(O)=C1c1ccc(Cl)s1` reads 9; that for `O=C1OC(=Cc2ccc(-c3ccc(Cl)cc3)cc2)C(O)=C1c1ccc(C(F)(F)F)cc1` (mixture of isomers), 9; that for `N#Cc1ccc(C2=C(O)C(=Cc3ccc(-c4ccc(C(F)(F)F)cc4)cc3)OC2=O)cc1` (mixture of isomers), 9.

`Cc1nc(C=C2OC(=O)C(c3ccc(OC(F)(F)F)cc3)=C2O)c[nH]1` (mixture of isomers) returned a Rating of 0. Same read-out and setting: the result for `O=C1OC(=Cc2ccc3c(c2)OC(F)(F)O3)C(O)=C1c1ccc(OC(F)(F)F)cc1` (mixture of isomers) reads 9; that for `O=C1OC(=Cc2ccncc2Cl)C(O)=C1c1ccc(OC(F)(F)F)cc1` (mixture of isomers), 9.

For the compound `O=C1OC(=Cc2ccc(OC(F)(F)C(F)F)cc2)C(O)=C1c1ccc(OC(F)(F)F)cc1` (mixture of isomers), the Rating is given as 9. Compound `O=C1OC(=Cc2cnccc2-c2cccc(Cl)c2)C(O)=C1c1ccc(OC(F)(F)F)cc1` (mixture of isomers) displayed a Rating of 9. Still for that read-out and setting: the same measure for `O=C1OC(=Cc2cnccc2-c2ccc(Cl)cc2)C(O)=C1c1ccc(OC(F)(F)F)cc1` (mixture of isomers): 9; for `O=C1OC(=Cc2cnccc2-c2ccc(OC(F)(F)F)cc2)C(O)=C1c1ccc(OC(F)(F)F)cc1` (mixture of isomers): 9; for `O=C1OC(=Cc2ccc(-c3ccc(Cl)s3)cc2)C(O)=C1c1ccc(OC(F)(F)F)cc1` (mixture of isomers): 9. For the compound `O=C1OC(=Cc2cnccc2-c2ccc(Cl)s2)C(O)=C1c1ccc(OC(F)(F)F)cc1` (mixture of isomers), the Rating is recorded as 9. As to `O=C1OC(=Cc2ccc(OCC3CC3)cc2)C(O)=C1c1ccc(OC(F)(F)F)cc1` (mixture of isomers), the Rating was 0. Compound `CCCOc1ccc(C=C2OC(=O)C(c3ccc(OC(F)(F)F)cc3)=C2O)cc1` (mixture of isomers) showed a Rating of 0.

The same assay, now with this note: dose 150 ppm, observations at 4 h and 24 h postimmersion.
The compound `O=C1O/C(=C\c2ccc(-c3ccccc3CO)cc2)C(O)=C1c1ccccc1CO` gave a Rating of 0. Compound `COc1ccccc1-c1ccc(C=C2OC(=O)C(c3cc(Cl)cc(Cl)c3)=C2O)cc1C` had a Rating of 0. On the same count and under the same terms, the result for `COc1cc(/C=C2\OC(=O)C(c3cc(Cl)cc(Cl)c3)=C2O)ccc1-c1ccccc1C` reads 9; that for `O=C1O/C(=C\c2ccc(-c3cccc(C(F)(F)F)c3)cc2)C(O)=C1c1cccc(C(F)(F)F)c1`, 8; that for `O=C1OC(=Cc2ccc(-c3cccc(CO)c3)cc2)C(O)=C1c1cccc(CO)c1`, 0.

`COc1ccc(/C=C2\OC(=O)C(c3cccc(Cl)c3)=C2O)c2ccccc12`: the Rating worked out at 9. The same measure, in the same setting: the result for `O=C1O/C(=C\c2ccc(N3CCOCC3)c3ccccc23)C(O)=C1c1cccc(Cl)c1` reads 0. Same read-out and setting: the result for `CCOC(=O)N1CCN(c2ccc(/C=C3\OC(=O)C(c4cccc(Cl)c4)=C3O)cc2F)CC1` reads 7; that for `Cc1cc(/C=C2\OC(=O)C(c3cccc(Cl)c3)=C2O)ccc1-c1ccccc1C(F)(F)F`, 9; that for `Cc1cc(/C=C2\OC(=O)C(c3cccc(Cl)c3)=C2O)ccc1-c1ccccc1Cl`, 9.

With `COc1ccccc1-c1ccc(C=C2OC(=O)C(c3cccc(Cl)c3)=C2O)cc1C`, the Rating was found to be 7.

In turn, `COc1cc(/C=C2\OC(=O)C(c3cccc(Cl)c3)=C2O)ccc1-c1ccccc1C(F)(F)F` yielded a Rating of 9. Same read-out and setting: the result for `COc1cc(/C=C2\OC(=O)C(c3cccc(Cl)c3)=C2O)ccc1-c1ccccc1Cl` reads 8. The compound `O=C1O/C(=C\c2cc(C(F)(F)F)ccc2Cl)C(O)=C1c1ccc(N2CCOCC2)c(F)c1` yielded a Rating of 0. Same read-out and setting: the result for `CC(=O)Nc1cccc(C2=C(O)C(=Cc3ccc(-c4cccc(NC(C)=O)c4)cc3)OC2=O)c1` reads 0. Still for that read-out and setting: the result for `O=C1OC(=Cc2ccc(-c3cc(C(F)(F)F)cc(C(F)(F)F)c3)cc2)C(O)=C1c1cc(C(F)(F)F)cc(C(F)(F)F)c1` reads 0; that for `CN(C)c1ccc(C=C2OC(=O)C(c3cc(Cl)cc(Cl)c3)=C2O)c2ccccc12`, 0. Compound `COc1ccc(/C=C2\OC(=O)C(c3cc(Cl)cc(Cl)c3)=C2O)c2ccccc12` registered a Rating of 0. As to `O=C1O/C(=C\c2ccc(N3CCOCC3)c3ccccc23)C(O)=C1c1cc(Cl)cc(Cl)c1`, the Rating is on record as 0. The compound `O=C1OC(=Cc2ccccc2OCc2ccccc2)C(O)=C1c1cc(Cl)cc(Cl)c1` gave a Rating of 0. Still for that read-out and setting: the result for `O=C1O/C(=C\c2ccc(N3CCN(c4ccccc4Cl)CC3)c(Cl)c2)C(O)=C1c1cc(Cl)cc(Cl)c1` reads 0; that for `CCOC(=O)N1CCN(c2ccc(C=C3OC(=O)C(c4cc(Cl)cc(Cl)c4)=C3O)cc2F)CC1`, 0. Same read-out and setting: the same measure for `CCOC(=O)CNC(=O)CNC(=O)c1cccc(/C=C2\OC(=O)C(c3cc(Cl)cc(Cl)c3)=C2O)c1`: 0; for `O=C1OC(=Cc2cccc(OCc3ccccc3)c2)C(O)=C1c1cc(Cl)cc(Cl)c1`: 0. `Cc1cc(/C=C2\OC(=O)C(c3cc(Cl)cc(Cl)c3)=C2O)ccc1-c1ccccc1Cl`: the Rating came to 7.

`COc1cc(/C=C2\OC(=O)C(c3cc(Cl)cc(Cl)c3)=C2O)ccc1-c1ccccc1C(F)(F)F` gave a Rating of 0. For `Cc1ccccc1-c1ccc(C=C2OC(=O)C(c3cc(Cl)cc(Cl)c3)=C2O)cc1C`, the Rating was found to be 0. In the case of `COc1ccccc1-c1ccc(/C=C2\OC(=O)C(c3cc(Cl)cc(Cl)c3)=C2O)cc1OC`, the Rating turned out to be 0. Take `O=C1O/C(=C\c2ccc(-c3cc(Cl)cc(Cl)c3)cc2)C(O)=C1c1cc(Cl)cc(Cl)c1`: the Rating was found to be 7. The same measure, in the same setting: the same measure for `CN(C)c1ccc(/C=C2\OC(=O)C(c3ccc(C(F)(F)F)cc3)=C2O)c2ccccc12`: 0.

Regarding `Cc1ccc(C2=C(O)/C(=C/c3ccc(-c4ccc(C)cc4)cc3)OC2=O)cc1`, the Rating is recorded as 0. In the case of `N#Cc1ccc(C2=C(O)C(=Cc3ccc(-c4ccc(Cl)cc4)cc3)OC2=O)cc1`, the Rating was determined as 9.

`CN(C)c1ccc(/C=C2\OC(=O)C(c3ccc(Cl)cc3)=C2O)c2ccccc12` showed a Rating of 0. The compound `CC(C)(C)c1ccc(-c2ccc(C3=C(O)/C(=C/c4ccc(-c5ccccc5)cc4)OC3=O)cc2)cc1` returned a Rating of 0.
